Patent US20220409587A1, “METHODS OF TREATING HIV-1 INFECTION” (BIOTRON LIMITED, priority 2019, published 2022)
“And” between values parts separate entries of the source, which are not always exact repeats. Identical values can stand only once. “Also recorded” adds a separate entry of the source.

Assays:
IL-21 = experiment: Phase 2 study: plasma Th17 related cytokines (MSD U-Plex), IL-21; type: in vivo, human
Experimental: (§1) A Phase 2, multi-centre, randomized, placebo-controlled, double-blind study of BIT225 in combination with ART (Atripla—efavirenz/emtricitabine/tenofovir DF) was undertaken in patients with HIV-1 infection that were treatment-naive. Patients were randomized into two groups on a 2:1 basis, with one group receiving BIT225 (100 mg QD; 6 patients: placebo; 3 patients), and one group receiving BIT225 (200 mg QD, 18 patients: placebo; 9 patients), with a total of 36 patients enrolled in the trial. The 100 mg BIT225 group was primarily included for detailed PK analyses due to limitations on the quantity of blood that could be drawn at time points coinciding with analyses of viral load decay, which were limited to the 200 mg cohort. All subjects received the standard dose of ART in addition to 12 weeks BIT225 or placebo study treatment. […]
(§2) Th17 cells regulate other immune cells, specifically neutrophils and macrophages, by secreting a variety of cytokines in response to pathogens. Plasma samples were analysed to determine the level of the Th17 related cytokines (IL-21, IFN-γ, IL-1p, IL-6, IL-10, IL-17A, IL-17E/IL-25, IL-17F, IL-22, and TNF-α) during the 12 week treatment period using electro-chemiluminescence MSD U-Plex Biomarker Group Th17 (Human Combo 2) Human Multiplex Assay (MesoScaleDiscovery, MD, USA).

IL-17F = experiment: Phase 2 study: plasma Th17 related cytokines (MSD U-Plex), IL-17F; type: in vivo, human; settings: BIT225 cohort vs placebo (data not shown)
Experimental: as §1, §2

[1] = tested on: activated CD8^+ cell (CD8^+/HLA-DR^+/CD38^+); experiment: Phase 2 study: activated CD8+ T cell numbers by flow cytometry; type: in vivo, human; settings: 200 mg BIT225 QD + ART vs placebo + ART, 12 weeks; ±29 SEM; P<0.01
Experimental: as §1, with “treatment. At the conclusion of the trial, patients remained on ART as per standard treatment protocols. HIV-1-infected subjects, males and females, aged 18 to 65 years inclusive, who were naive to ART were recruited.” for “treatment.”
(§3) Analyses for cell populations (T cells and NK cells) were performed in real time by flow cytometry (CD4^+, CD8^+, CD38^+, and HLA-DR^+ for T cells, and CD16^+, CD45^+ and CD56^+ for NK cells). […] Immune activation markers measured by flow cytometry were performed in real time alongside CD4^+, CD8^+ and CD14^+ enumeration at HIV-NAT laboratory, Bangkok Thailand.

IFN-γ = experiment: Phase 2 study: plasma Th17 related cytokines (MSD U-Plex), IFN-γ; type: in vivo, human
Experimental: as §1, §2

NK cells = experiment: Phase 2 study: NK cell numbers by flow cytometry; type: in vivo, human
Experimental: (§4) A Phase 2, multi-centre, randomized, placebo-controlled, double-blind study of BIT225 in combination with ART (Atripla—efavirenz/emtricitabine/tenofovir DF) was undertaken in patients with HIV-1 infection that were treatment-naive. Patients were randomized into two groups on a 2:1 basis, with one group receiving BIT225 (100 mg QD; 6 patients: placebo; 3 patients), and one group receiving BIT225 (200 mg QD, 18 patients: placebo; 9 patients), with a total of 36 patients enrolled in the trial. The 100 mg BIT225 group was primarily included for detailed PK analyses due to limitations on the quantity of blood that could be drawn at time points coinciding with analyses of viral load decay, which were limited to the 200 mg cohort. All subjects received the standard dose of ART in addition to 12 weeks BIT225 or placebo study treatment. At the conclusion of the trial, patients remained on ART as per standard treatment protocols. HIV-1-infected subjects, males and females, aged 18 to 65 years inclusive, who were naive to ART were recruited. Individuals had HIV-1 RNA>5,000 copies/mL and CD4^+ T cell count>100 cells/mm^3.
(§5) There were two treatment cohorts. The first cohort received 100 mg capsule of BIT225 or placebo QD with ART for 12 weeks. Cohort 2 were given two 100 mg capsules BIT225 (200 mg BIT225) or placebo QD with ART. ART was 1 fixed dose combination tablet of Atripla.
Analyses for cell populations (T cells and NK cells) were performed in real time by flow cytometry (CD4^+, CD8^+, CD38^+, and HLA-DR^+ for T cells, and CD16^+, CD45^+ and CD56^+ for NK cells). ELISA assays were run for sCD163 and Th17 related cytokines. Immune activation markers measured by flow cytometry were performed in real time alongside CD4^+, CD8^+ and CD14^+ enumeration at HIV-NAT laboratory, Bangkok Thailand.

[2] = tested on: CD80 on MDM infected with HIV-1 NL4-3; experiment: Plasma membrane CD80 expression on HIV-1 NL4-3 infected MDM, flow cytometry; type: cell-based, human
Experimental: (§6) Method of virus stock generation is as described by Bobardt et al., PNAS, 2008; 105(14):5525-5530. Briefly, 293T cells were transfected with proviral plasmid (9 μg) and vesicular stomatitis virus G (VSV-G) envelope plasmid (1 μg). At day 2, VSV-G pseudotyped viruses (5 μg of p24) were harvested and used to acutely infect Jurkat cells (2×10^6 cells). Two days after infection, viruses were harvested, and p24 content was measured by ELISA (PerkinElmer). Viral infections were conducted in triplicate with 10 or 100 ng of p24 derived from transfected 293T cells. The following proviral constructs were used: wild-type HIV-1 pNL4.3 […] tropic[WT], pNL4.3 ANef, pNL4.3 AVpu, pNL4.3 ANefAVpu, and HIV-1 pBaL-1 CCR5(R5) tropic[WT].
(§7) Blood-derived CD4^+ T lymphocytes and MDM were isolated as described in Saphire et al., J Virol 2001, 75:9187-9200. CD4^+ T cells and monocytes were extracted from the blood of three donors that were CCR5-Delta32 negative. […]
(§8) Cells were treated with 3 μM BIT225 or DMSO control, and expression of CD28, CCR7, CD80 and CD86 measured by flow cytometry at 24, 48 and 72 hour time points. […]

soluble CD163 (sCD163) = experiment: Phase 2 study: plasma sCD163 by Macro163 ELISA; type: in vivo, human
Experimental: as §4
(§9) There were two treatment cohorts. The first cohort received 100 mg capsule of BIT225 or placebo QD with ART for 12 weeks. […]
The macrophage and monocyte activation marker sCD163 was measured in plasma by Macro163™ ELISA (IQ Products, Groningen, The Netherlands).

IL-6 = experiment: Phase 2 study: plasma Th17 related cytokines (MSD U-Plex), IL-6; type: in vivo, human
Experimental: as §1, §2

[3] = tested on: activated CD4^+ T cells (CD4^+/HLA-DR^+/CD38^+); experiment: Phase 2 study: activated CD4+ T cell numbers by flow cytometry; type: in vivo, human
Experimental: as §4, with “Individuals had HIV-1 RNA>5,000 copies/mL and CD4^+ T cell count>100 cells/mm^3.” left out
as §3

IL-10 = experiment: Phase 2 study: plasma Th17 related cytokines (MSD U-Plex), IL-10; type: in vivo, human; settings: BIT225 cohort vs placebo (data not shown)
Experimental: as §1, §2

[4] = tested on: CCR7 on CD4^+ T cells infected with HIV-1 NL4-3; experiment: Plasma membrane CCR7 expression on HIV-1 NL4-3 infected CD4+ T cells, flow cytometry; type: cell-based, human
Experimental: as §6
(§10) CD4^+ T cell isolation as previously described by Geijtenbeek et al., Cell, 2000, 100:587-597. Human PBMC were purified from fresh blood by banding on Ficoll-Hypaque (30 min, 800 g, 25° C.; Amersham Biosciences). Primary human CD4^+ T cells were purified from PBMC by positive selection with anti-CD4 Dynabeads and subsequent release using Detachabead (Dynal Biotech). […]
as §8

IL-1 B = experiment: Phase 2 study: plasma Th17 related cytokines (MSD U-Plex), IL-1 B; type: in vivo, human; settings: BIT225 cohort vs placebo (data not shown)
Experimental: as §1, §2

[5] = Phase 2 study: safety and tolerability; type: in vivo, human
Experimental: as §4, §5
The safety of the experimental treatments was assessed by monitoring adverse events, vital signs, ECG parameters, clinical laboratory tests (haematology, clinical chemistry, coagulation and urinalysis) and physical examinations.

[6] = tested on: CD86 on MDM infected with HIV-1 NL4-3; experiment: Plasma membrane CD86 expression on HIV-1 NL4-3 infected MDM, flow cytometry; type: cell-based, human
Experimental: as §6, §7, §8

[7] = tested on: CD28 on CD4^+ T cells infected with HIV-1 NL4-3; experiment: Plasma membrane CD28 expression on HIV-1 NL4-3 infected CD4+ T cells, flow cytometry; type: cell-based, human; settings: 3 μM BIT225, WT HIV-1 NL4-3 infected cells, up to 72 h; dependent on Vpu expression
Experimental: as §6, §10, §8

[8] = Phase 2 study: pharmacokinetics (plasma, LC/MS/MS); type: in vivo, human
Experimental: as §4
There were two treatment cohorts. The first cohort received 100 mg capsule of BIT225 or placebo QD with ART for 12 weeks. Cohort 2 were given two 100 mg capsules BIT225 (200 mg BIT225) or placebo QD with ART. ART was 1 fixed dose combination tablet of Atripla. […]

TNF-α = experiment: Phase 2 study: plasma Th17 related cytokines (MSD U-Plex), TNF-α; type: in vivo, human; settings: BIT225 cohort vs placebo (data not shown)
Experimental: as §1, §2

HIV-1 = experiment: Phase 2 study: plasma HIV-1 viral load decay (Roche COBAS TaqMan HIV-1); type: in vivo, human; settings: 200 mg BIT225 QD + ART vs placebo QD + ART, 12 weeks, treatment-naive HIV-1 patients
Experimental: as §4, §9
HIV-1 plasma viral load was determined in real time by Roche COBAS TaqMan HIV-1 currently approved version (Roche Diagnostics).

[9] = 3 μM BIT225, ΔNefΔVpu HIV-1 NL4-3 double mutant

## Cn1cc(-c2cccc3cc(C(=O)NC(=N)N)ccc23)cn1 [BIT225, N-carbamimidoyl-5-(1-methylpyrazol-4-yl)naphthalene-2-carboxamide]
IL-21; 200 mg BIT225 QD + ART vs placebo + ART, P=0.02
  Plasma IL-21 versus placebo over the first 3 weeks (ANOVA): statistically significant increase; also recorded: statistically significantly increased
IL-21; BIT225 + ART
  Time of peak plasma IL-21: 3 week
IL-17F
  IL-17F production versus placebo: no difference between cohorts
[1]
  Estimated average difference in activated CD8+ T cells, BIT225 cohort versus placebo (two-factor linear model): 85 cells/ml
IFN-γ; BIT225 cohort (data not shown)
  Subjects with IFN-γ transient spike: 16 of 18
IFN-γ; BIT225 cohort + ART
  IFN-γ cohort mean response: transient spike at Day 14
NK cells; 200 mg BIT225 QD + ART vs placebo + ART, 12 weeks, SEM, P<0.01
  Estimated average difference in NK cells, BIT225 cohort versus placebo (two-factor linear model): 71 cells/ml and 71±23 cells/ml
NK cells; BIT225 + ART
  Time to peak of NK cell numbers after commencing treatment: 24 to 48 h
NK cells; BIT225 + ART, 12-week treatment
  NK cell numbers during treatment versus placebo: remained higher
[2]; 3 μM BIT225, WT or ΔNef virus infected cells (express Vpu)
  Plasma membrane CD80 expression on MDM: partial restoration
[2]; [9]
  Plasma membrane CD80 expression on MDM: no observable effect
Soluble CD163 (sCD163); 200 mg BIT225 QD + ART vs placebo + ART, 12 weeks, ±SE, P=0.036
  Linear model estimate β1 of larger overall decrease in sCD163 for BIT225 versus placebo: 208 ± 99 ng/mL
Soluble CD163 (sCD163); BIT225 + ART vs ART + placebo
  sCD163 over 12 weeks compared to ART alone: significantly reduced; also recorded: statistically significant decline
IL-6; BIT225 + ART
  Subjects with transient spike of plasma IL-6 in first 3 weeks: 8 of 18
IL-6; BIT225 cohort vs placebo (data not shown)
  IL-6 response after 3 weeks, change from baseline (Log10): remained higher than placebo
[3]; 100 mg BIT225 QD + ART (data not shown)
  Time activated CD4+ T cells remained elevated: approximately 50 days
[3]; 200 mg BIT225 QD + ART vs placebo + ART, 12 weeks
  Change from baseline of activated CD4+ T cell numbers compared to placebo: sustained delay in decline; also recorded: statistically significant delayed reduction
IL-10
  IL-10 levels versus placebo over 12 weeks: not statistically significant
[4]; 3 μM BIT225, WT HIV-1 NL4-3-infected cells, dependent on Vpu expression
  CCR7 expression on CD4+ T cells: partial restoration
[4]; 3 μM BIT225, ΔVpu virus
  CCR7 downregulation by Nef expression alone: not affected
IL-1 B
  IL-1 B production versus placebo: no statistical differences
[5]; 100 and 200 mg QD cohorts with ART, 12 weeks
  Tolerability / safety: safe and well tolerated
[5]; BIT225 100 mg cohort
  QTcB in one discontinued subject (mild QTcB prolongation, Day 17), considered not related to BIT225 or Atripla: > 480 ms
  Subjects who discontinued the study early due to AEs: Two
[5]; all cohorts
  Serious AEs or deaths: no serious AEs (SAEs) or deaths
[6]; 3 μM BIT225, WT or ΔNef virus infected cells
  Plasma membrane CD86 expression on MDM: partial restoration
[6]; [9]
  Plasma membrane CD86 expression on MDM: no observable effect
[7]
  CD28 expression on CD4+ T cells: partial restoration
[8]; co-administration (results not shown)
  Effect of BIT225 on the PK characteristics of Atripla (ART): did not significantly affect; also recorded: no significant impact
[8]; intensive PK sampling, 100 mg cohort
  Plasma exposures: within the expected timeframes and concentration ranges
TNF-α
  TNF-α versus placebo: no statistical differences
HIV-1
  Plasma HIV-1 RNA decline versus placebo: declined in a similar manner
